Source: US20170333532A1, “ADP'ASE-ENHANCED APYRASE THERAPY FOR WOUNDS, MICROBIAL INFECTION, SEPSIS, AND HETEROTOPIC OSSIFICATION” (APT THERAPEUTICS, INC, priority 2014, published 2017)

Tested on: A. baumannii ATCC DMCI
Assay: Mouse model for wound infection and healing (burn), A. baumannii ATCC DMCI, treatment 24 hours after inoculation
Format: in vivo
Conditions: wounds treated 24 hours after inoculation, skin collected 48 hours after the burn
Description: e.g., in a mouse model for wound infection and healing. After a burn, A. baumannii ATCC DMCI is inoculated on skin. After 24 hours, the wounds are treated with Apyrase Agent alone, colistin alone, or Apyrase Agent and colistin in combination. Skin samples are collected after another 24 hours and the CFU/g skin of A baumannii ATCC DMCI is determined. […] In the presence of Apyrase Agent or colistin alone, A. baumannii is detected at amounts of approximately 10^8 CFU/g of skin.

colistin sulfate salt was tested. Which “A. baumannii detected on skin” value did it give?
Its value is “approximately 10^8 CFU/g of skin”.
